According to US9670261B2 (Sanofi, priority 2012, dated 2017):
*1 amine or outer side, *2 acyl side, *3 side chain or, on linkers, in order; H or OH if unused. Where a SMILES comes first, the peptide text is derived from it. Side-chain parts run from the residue outwards. [ ]: non-standard residue; d: D form. The star is where a group is joined. γGlu = O=C(O)[C@H](CCC(=O)[*:2])N[*:1]; Palmitoyl = CCCCCCCCCCCCCCCC(=O)*; Aib = CC(C)(N)C(=O)O

Assays:
[1] = test system: female NMRI-mice; assay: Gastric emptying and intestinal passage in mice; format: in vivo; details: versus vehicle control
Description: Female NMRI-mice of a body weight between 20 and 30 g were used. Mice were adapted to housing conditions for at least one week. Mice were overnight fasted, while water remained available all the time. On the study day, mice were weighed, single-caged and allowed access to 500 mg of feed for 30 min, while water was removed. At the end of the […], remaining feed was removed and weighed. Then, the test compound/reference compound or its vehicle in the control group was administered subcutaneously. 60 min later, to allow the compound to reach relevant plasma exposure, a coloured, non-caloric bolus was instilled via gavage into the stomach. After another 30 min, the animals were sacrificed and the stomach and the small intestine prepared. The filled stomach was weighed, emptied, carefully cleaned and dried and reweighed. The stomach content, calculated as weight of filled subtracted by the weight of emptied stomach, indicated the degree of gastric emptying. The small intestine was straightened without force and measured in length. Then the distance from the gastric beginning of the gut to the tip of the farthest traveled intestinal content bolus was measured. The intestinal passage was given as ratio in percent of the latter distance and the total length of the small intestine. […] Statistical analyses were performed with Everstat 6.0 by 1-way-ANOVA, followed by Dunnett's as post-hoc test. Dunnett's Test was applied to compare versus vehicle control. Differences were considered statistically significant at the p<0.05 level.

[2] = test system: female NMRI-mice; assay: Automated assessment of 22-hours feed intake in mice; format: in vivo
Description: Female NMRI-mice of a body weight between 20 and 30 g were used. Mice were adapted to housing conditions for at least one week and for at least one day single-caged in the assessment equipment, when basal data were recorded simultaneously. On the study day, test product was administered subcutaneously close to the lights-off phase (12 h lights off) and assessment of feed consumption was directly started afterwards. Assessment included continued monitoring over 22 hours, while data are processed as mean over every 30 min. Repetition of this procedure over several days was possible. Restriction of assessment to 22 hours was for practical reasons to allow for reweighing of animals, refilling of feed and water and drug administration between procedures. Results could be assessed as cumulated data over 22 hours or differentiated to 30 min intervals. […] Statistical analyses were performed with Everstat 6.0 by two-way ANOVA on repeated measures and Dunnett's post-hoc analyses. Differences were considered statistically significant at the p<0.05 level. […] Lights-off phase (dark phase) started 4 hours later. […].

[3] = Chemical stability in solution, 7 days at 25° C. (% remaining peptide); details: % remaining peptide after 7 days at 25° C.
Description: After that time course, the sample was centrifuged for 20 min at 4000 rpm and the supernatant was analysed with HPLC-UV. For determination of the amount of the remaining peptide, the peak areas of the target compound at t0 and t7 were compared, resulting in “% remaining peptide”, following the equation % remaining peptide=[(peak area peptide t7)×100]/peak area peptide t0.
The chemical stability is expressed as “% remaining peptide”.

[4] = Pharmacokinetic testing in mice, s.c.; details: mouse, plasma, sc, 1 mg/kg
Description: Mice were dosed 1 mg/kg subcutaneously (s.c.). The mice were sacrified and blood samples were collected after 0.25, 0.5, 1, 2, 4, 8, 16 and 24 hours post application. Plasma samples were analyzed after protein precipitation via liquid chromatography mass spectrometry (LC/MS). PK parameters and half-life were calculated using WinonLin Version 5.2.1 (non-compartment model).

[5] = test system: female diet-induced obese (DIO) C57BL/6NCrl mice; assay: Body weight in DIO mice, 14 weeks of prefeeding with high-fat diet (method 2); format: in vivo
Description: Female C57BL/6NCrl mice were housed in groups in a specific pathogen-free barrier facility on a 12 h light/dark cycle with free access to water and high-fat diet. After 14 weeks on high-fat diet, mice were stratified to treatment groups (n=8), so that each group had similar mean body weight.
An aged-matched group with ad libitum access to standard chow and water was included as standard control group.
Before the experiment, mice were subcutaneously (s.c.) injected with vehicle solution and weighed for 3 days to acclimate them to the procedures.
Body weight was recorded daily.
Statistical analyses were performed with Everstat 6.0 by repeated measures two-way ANOVA and Dunnett's post-hoc analyses (glucose profile) and 1-way-ANOVA, followed by Dunnett's post-hoc test (body weight, body fat). Differences versus vehicle-treated DIO control mice were considered statistically significant at the p<0.05 level.
Female obese C57BL/6NCrl mice were treated for 3 weeks once daily subcutaneously in the late afternoon, prior the end of the light phase (12 h lights on) with 10 μg/kg SEQ ID NO: 9 and SEQ ID NO: 21 or vehicle. Body weight was recorded daily.

[6] = test system: female leptin-receptor deficient diabetic db/db mice; assay: Blood glucose and HbA1c in leptin-receptor deficient diabetic db/db mice (method 3); format: in vivo
How it was run: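 Female db/db mice (9–10 weeks at arrival) dosed at 5 mL/kg for 4 weeks with free food and water. Tail blood without anaesthesia: glucose by hexokinase and HbA1c measured before and at end of treatment, plus a 24-h glucose profile; repeated-measures two-way ANOVA with Dunnett's versus vehicle db/db, p<0.05.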

## CCCCCCCCCCCCCCCC(=O)N[C@@H](CCC(=O)NCCCC[C@H](NC(=O)[C@H](CCC(N)=O)NC(=O)[C@@H](NC(=O)[C@H](CO)NC(=O)[C@H](CC(C)C)NC(=O)[C@H](CC(=O)O)NC(=O)[C@H](CO)NC(=O)[C@@H](NC(=O)[C@H](Cc1ccccc1)NC(=O)[C@@H](NC(=O)CNC(=O)[C@H](CCC(=O)O)NC(=O)C(C)(C)NC(=O)[C@@H](N)Cc1ccc(O)cc1)[C@@H](C)O)[C@@H](C)O)[C@@H](C)CC)C(=O)N[C@@H](CCC(=O)O)C(=O)N[C@@H](CCCCN)C(=O)N[C@@H](CCCNC(=N)N)C(=O)N[C@@H](C)C(=O)N[C@@H](C)C(=O)NC(C)(C)C(=O)N[C@@H](CCC(=O)O)C(=O)N[C@@H](Cc1ccccc1)C(=O)N[C@H](C(=O)N[C@@H](CCC(=O)O)C(=O)N[C@@H](Cc1c[nH]c2ccccc12)C(=O)N[C@@H](CC(C)C)C(=O)N[C@@H](CCCCN)C(=O)N[C@@H](CC(N)=O)C(=O)N[C@H](C(=O)NCC(=O)N1CCC[C@H]1C(=O)N[C@@H](CO)C(=O)N[C@@H](CO)C(=O)NCC(=O)N[C@@H](C)C(=O)N1CCC[C@H]1C(=O)N1CCC[C@H]1C(=O)N1CCC[C@H]1C(=O)N[C@@H](CO)C(N)=O)[C@@H](C)O)[C@@H](C)CC)C(=O)O [SEQ ID NO: 9, Y-Aib-E-G-T-F-T-S-D-L-S-I-Q-K(γE-x53)-E-K-R-A-A-Aib-E-F-I-E-W-L-K-N-T-G-P-S-S-G-A-P-P-P-S-NH2] (H-Y[Aib]EGTFTSDLSIQK([γGlu-Palmitoyl])EKRAA[Aib]EFIEWLKNTGPSSGAPPPS-NH2)
[1]; 1 μg/kg s.c.
  increase of remaining gastric contents: 32%
  reduction of intestinal passage: 49%
[1]; 3 μg/kg s.c.
  increase of remaining gastric contents: 79%
  reduction of intestinal passage: 62%
[1]; 10 μg/kg s.c.
  increase of remaining gastric contents: 111%
  reduction of intestinal passage: 64%
[2]; 3 μg/kg s.c. (not significant, p=0.78)
  reduction of feed intake after 22 hours: 11%
[2]; 10 μg/kg s.c.
  reduction of feed intake after 22 hours: 62%
[3]; pH 4.5
  Stability (pH 4.5): 92.5%
[3]; pH 7.4
  Stability (pH 7.4): 97.7%
[4]
  Cmax: 5470 ng/mL
  half-life: 246 min
[5]; 10 μg/kg s.c. once daily, 3 weeks
  decrease of body weight, relative change from baseline: up to 15.1%
[5]; 10 μg/kg, 3-week treatment, mean ± SEM
  Overall weight change: -6.2 ± 0.4 g
[6]; 10, 30 and 100 μg/kg s.c. once daily, 4 weeks, all three doses
  HbA1c level versus db/db control mice at the end of the study: lower HbA1c level
[6]; 10, 30 or 100 μg/kg s.c. once daily, 4 weeks
  blood glucose level versus db control mice at the end of the study: significant lower blood glucose level
[6]; 10, 30 or 100 μg/kg s.c. once daily, 4 weeks, compared with liraglutide
  blood glucose after 4 weeks of treatment: strong and dose-dependent decrease in blood glucose, superior to liraglutide in the medium and highest dose
[6]; single 100 μg/kg s.c., fed db/db mice
  blood glucose compared to db/db control mice, 24 h profile: significant decrease in blood glucose
